Experimental findings from US4224325A, “3-(1-Pyrazolyl)-pyridazine derivatives and hypotensive compositions thereof” (Richter Gedeon Vegyeszeti Gyar Rt., priority 1977, dated 1980) are described below.

The subject of data set [1] is cats. Briefly: Hypotensive action in narcotized cats (decrease in blood pressure). The format is in vivo. The settings on record: cats narcotized i.p. by 30 mg/kg Pentobarbital.
In data set [2] the target is T1, prostaglandin dehydrogenase (PGDH) (Sus scrofa, UniProt A0ACM8QJV0).
T1 construct: on a PGDH preparation from pig lung; from tissue; host or cells: pig lung
T1 sequence (A0ACM8QJV0 1-266): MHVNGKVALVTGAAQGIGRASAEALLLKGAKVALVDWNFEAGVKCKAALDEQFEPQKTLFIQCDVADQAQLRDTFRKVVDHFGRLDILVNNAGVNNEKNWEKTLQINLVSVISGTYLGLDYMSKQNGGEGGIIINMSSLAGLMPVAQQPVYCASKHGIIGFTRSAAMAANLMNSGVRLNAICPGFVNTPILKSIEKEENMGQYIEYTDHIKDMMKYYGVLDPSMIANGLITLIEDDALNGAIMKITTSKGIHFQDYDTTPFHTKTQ
Briefly: Prostaglandin dehydrogenase (PGDH) inhibiting action, method of Marrazzi and Matschinsky, PGDH preparation from pig lung. The format is biochemical. An excerpt:
(§1) The I50%, i.e. the index of inhibition, is defined as the concentration of the substance inhibiting to 50% the function of the corresponding enzyme.

Data set [3] is described as follows: in vivo. As to conditions: mouse, po.
The test system of data set [4] is spontaneously hypertensive (Wistar-Okamoto) rats. Briefly: Hypotensive action in spontaneously hypertensive rats, systolic blood pressure in caudal artery by indirect method after oral treatment. The format is in vivo. The settings on record: dose equal to Hydralazine. As to the method: The hypotensive action of substance 44 was studied also in spontaneously hypertensive (Wistar-Okamoto(rats)Arzneim.- forsch. 6, 222, 1956): the systolic blood pressure was measured in the caudal artery by an indirect method, after oral treatment.

Data set [5] deals with prostaglandin-A isomerase (PGAI). Briefly: Prostaglandin-A isomerase (PGAI) inhibiting action, method of Jones et al., PGAI preparation from blood plasma of pigs. The format is biochemical. The settings on record: concentration inhibiting enzyme function to 50%; PGAI from pig blood plasma; read-out: I50% inhibiting level in final concentration, PGAI.
Excerpt: as §1

Data set [6] is described as follows: Tachycardia (inability to cause, compared with Hydralazine). The format is in vivo. As to conditions: against Hydralazine.
The test system of data set [7] is prostaglandin dehydrogenase and prostaglandin-A isomerase. Briefly: Inhibition of enzymes regulating prostaglandin catabolism (prostaglandin dehydrogenase and prostaglandin-A isomerase), in words. The format is biochemical. The procedure: The prostaglandin-A isomerase (PGAI) inhibiting action of the compounds according to the invention was measured by the method of Jones et al. (Biochim. Biophys. Acta 280, 558, 1972) on a PGAI preparation from the blood plasma of pigs, whereas the prostaglandin dehydrogenase (PGDH) inhibiting action was determined by the method of Marrazzi and Matschinsky (Prostaglandins 1, 373, 1972); on a PGDH preparation from pig lung.

The test system of data set [8] is mice. The settings on record: against Hydralazine.
Where [9] appears, read: concentration inhibiting enzyme function to 50%, PGDH from pig lung, read-out: I50% inhibiting level in final concentration, PGDH.

Like-named read-outs stand apart in the source and are kept apart here.

Broadly, the LD50 is the dose expected to kill half of the subjects tested. In the case of `Cc1nn(-c2ccc(NN)nn2)c(C)c1Cl` [Example 34, 3-Hydrazino-6-(3,5-dimethyl-4-chloro-1-pyrazolyl)-pyridazine], the “Decrease in blood pressure by 1 mg/kg” value in data set [1] is on record as -20 Hgmm. The IC50 in data set [2] (setting [9]) was 110 µM. This molecule also came in with an LD50 in data set [3] of over 200 mg/kg.

Consider `NNc1ccc(-n2cc(N)cn2)nn1` [Example 45, 3-Hydrazino-6-(4-amino-1-pyrazolyl)-pyridazine], for which, in data set [1], the “Decrease in blood pressure by 1 mg/kg” value was -30 Hgmm. In data set [3], this molecule showed an LD50 of 200 mg/kg.

With `Cc1nn(-c2ccc(NN)nn2)c(C)c1N` [Example 44, 3-hydrazino-6-(3,5-dimethyl-4-amino-1-pyrazolyl)-pyridazine], the Decrease in blood pressure by 1 mg/kg in data set [1] was -40 Hgmm. In data set [4], the “Duration of effect compared with Hydralazine at equal dose” value is on record as “same duration of effect” and the “Effectivity (systolic blood pressure) compared with Hydralazine at equal dose” value is given as “same effectivity”. Besides, the IC50 in data set [5] was 70 µM. Besides, the Tachycardia entry in data set [6] is on record as “inability to cause tachycardia”. In addition, the “Prostaglandin catabolism inhibiting effect” value in data set [7] is on record as “prostaglandin catabolism inhibiting effect”. Also, the “Toxicity compared with Hydralazine” value in data set [8] is reported as “extraordinarily favorable toxicity”. The LD50 in data set [3] is over 200 mg/kg.

Turning to `Cc1cc(C)n(-c2ccc(NN)nn2)n1` [Example 25, 3-hydrazino-6-(3,5-dimethyl-1-pyrazolyl)-pyridazine], the “Decrease in blood pressure by 1 mg/kg” value in data set [1] is given as -30 Hgmm. Moreover, the IC50 in data set [5] came to 25 µM. This molecule also had a median lethal dose (LD50) in data set [3] of 200 mg/kg.

Take `CCc1nn(-c2ccc(NN)nn2)c(CC)c1N` [Example 46, 3-Hydrazino-6-(3,5-diethyl-4-amino-1-pyrazolyl)-pyridazine]: in data set [1], the “Decrease in blood pressure by 1 mg/kg” value is on record as -50 Hgmm. The molecule further returned a 50% lethal dose (LD50) in data set [3] of 200 mg/kg.

Consider `c1ccc(CNc2ccc(-n3nc(-c4ccccc4)cc3-c3ccccc3)nn2)cc1` [Example 21, 3-Benzylamino-6-(3,5-diphenyl-1-pyrazolyl)-pyridazine], for which the IC50 in data set [5] is 20 µM.

For the molecule `NNc1ccc(-n2nc(C3CC3)cc2C2CC2)nn1` [Example 26, 3-Hydrazino-6-(3,5-dicyclopropyl-1-pyrazolyl)-pyridazine], the “Decrease in blood pressure by 1 mg/kg” value in data set [1] was -40 Hgmm. The molecule further displayed an LD50 in data set [3] of 100 mg/kg.

In the case of `Cc1nn(-c2ccc(NN)nn2)c(C)c1Br` [Example 35, 3-Hydrazini-6-(3,5-dimethyl-4-bromo-1-pyrazolyl)-pyridazine], the IC50 in data set [5] was 80 µM.

For `Cc1nn(-c2ccc(NNC(=O)OC(C)(C)C)nn2)c(C)c1N` [Example 56, 3-(2-tert-butoxycarbonyl-1-hydrazino)-6-(3,5-dimethyl-4-amino-1-pyrazolyl)-pyridazine], the “Decrease in blood pressure by 1 mg/kg” value in data set [1] is given as -35 Hgmm. Further, the LD50 in data set [3] turned out to be 200 mg/kg.

Turning to `Cl.NNc1nncc2ccccc12` [Hydralazine, 1-hydrazinophthalazine hydrochloride, reference compound], the “Decrease in blood pressure by 1 mg/kg” value in data set [1] is -40 Hgmm. Also, in data set [5], the IC50 is 90 µM. Also, the LD50 in data set [3] is 200 mg/kg.

Regarding `CCc1cc(CC)n(-c2ccc(NN)nn2)n1` [Example 29, 3-Hydrazino-6-(3,5-diethyl-1-pyrazolyl)-pridazine], in data set [1], the “Decrease in blood pressure by 1 mg/kg” value is reported as -40 Hgmm. Besides, the LD50 in data set [3] is about 150 mg/kg.

For the molecule `Cc1cc(C)n(-c2ccc(NCc3ccccc3)nn2)n1` [Example 17, 3-Benzylamino-6-(3,5-dimethyl-1-pyrazolyl)-pyridazine], the IC50 in data set [2] (setting [9]) amounted to 200 µM.

For `Cc1cc(C)n(-c2ccc(N(C)C)nn2)n1` [Example 19, 3-Dimethylamino-6-(3,5-dimethyl-1-pyrizolyl)-pyridazine], in data set [5], the IC50 stood at 130 µM.

In the case of `NNc1ccc(-n2nccc2N)nn1` [Example 40, 3-Hydrazino-6-(5-amino-1-pyrazolyl)-pyridazine], the “Decrease in blood pressure by 1 mg/kg” value in data set [1] is recorded as -30 Hgmm. In data set [3], the LD50 was determined as 200 mg/kg.

For the molecule `C[C@]12CC[C@@H]3c4ccc(O)cc4CC[C@H]3[C@@H]1CCC2=O` [Estrone, reference compound], the IC50 in data set [2] was found to be 10 µM.

As to `Cc1nn(-c2ccc(NN)nn2)c(C)c1C` [Example 31, 3-Hydrazino-6-(3,4,5-trimethyl-1-pyrazolyl)-pridazine], in data set [1], the “Decrease in blood pressure by 1 mg/kg” value is on record as -15 Hgmm. Moreover, the IC50 in data set [5] amounted to 60 µM. The LD50 in data set [3] stood at 100 mg/kg.
